{"source": "paper PMC7002685", "about": "“Inhibition of vascular calcification by inositol phosphates derivatized with ethylene glycol oligomers” (Nature Communications, 2020)", "key": {"primary human VSMCs [1]": {"tested_on": "primary human VSMCs", "experiment": "High-CaP medium-induced VSMC calcification", "assay_type": "cell-based", "details": "for VSMC calcium deposition, % of high-CaP control: high-CaP medium, 5 days", "protocol": "Incubation of VSMCs in high-CaP medium induced cell monolayer calcification after 5 days (Fig. 3b). […] The effect became significant from 0.1 µM (OEG2)2-IP4 on, where a 54% reduction in calcification was observed compared to untreated high-CaP medium-exposed cells.\nPrimary human VSMCs (C-12533, PromoCell, Heidelberg, Germany) were cultured according to the manufacturer's guidelines in SMC-2 culture medium (C-22062, PromoCell) and used up to passage 7. For calcification experiments cells were seeded onto 24-well plates (TPP) at a density of 20,000 cells/well and left to attach for 48–72 h. Complete medium was M199 medium (31150022, Thermo Fischer Scientific), supplemented with 10% v/v FBS (10270106, Thermo Fisher Scientific, Waltham, MA), 1% v/v penicillin/streptomycin (15140122, Thermo Fisher Scientific), and 4 mM L-glutamine (25030024, Thermo Fisher Scientific)[80]. Calcification of cell monolayers was induced as described previously[81] by treatment with CPP2-supplemented (50 µg Ca/mL) medium with or without test compounds (1, 3, 10, 30, and 100 µM) at a volume of 1 mL/well for 48 h at 37 °C, 5% CO2. In a second assay, calcification was induced similar to previous experiments[56] by cell treatment with or without test compounds (0.01, 0.1, 1, 10, and 100 µM) in complete medium supplemented with calcium (2.7 mM) and phosphate (2.5 mM) (CaP medium) at a volume of 1 mL/well for 5 days, and treatment medium was replaced on alternate days.\n(§1) Calcium deposition on cell monolayers was assessed qualitatively by staining for calcium with 2% w/v Alizarin Red S aqueous solution (pH 4.2) (05600, Fluka Analytical). Cell monolayers in 24-well plates were washed with PBS (10010015, Thermo Fischer), fixed in 10% v/v NBF in PBS (F8775, Sigma-Aldrich) for 45 min at RT, washed with milli-Q water, incubated for 3 min with 300 µL Alizarin Red S solution, washed with milli-Q, and images were acquired using a Axiovert 35 microscope (Zeiss, Carl Zeiss Microscopy GmbH, Jena, Germany) at ×100 magnification. Calcium quantitation was performed after washing cells with PBS and then decalcifying cell monolayers with 0.1 M HCl overnight at 4 °C. Acidic supernatants were centrifuged (10,000 × g, 4 °C, 10 min) and calcium content was assessed using the calcium colorimetric assay."}, "[2]": {"experiment": "VSMC viability (MTS) in CPP2-supplemented medium", "assay_type": "cell-based, human", "details": "human, read-out: VSMC viability (MTS), % of medium control; for viability at 48 h, 3 µM: 3 µM with CPP2; for viability at 48 h, 10 µM: 10 µM with CPP2; for viability at 48 h, 30 µM: 30 µM with CPP2", "protocol": "(§2) Macrophage accumulation and inflammation coincide with the initial phase of calcification. To this end, VSMCs and THP-1-derived macrophages were exposed to CPP2-supplemented medium. CPP2 prepared from human serum as described previously[61] (Supplementary Figs. 6 and 7), induced a pronounced VSMC monolayer calcification after 48 h, which was decreased by (OEG2)2-IP4 in a dose-dependent fashion, and the effect became significant at 10 µM (Fig. 3e). […] Both H2O2 (proxy for oxidative stress) and tumor necrosis factor-alpha (TNF-α) (proxy for inflammatory response) levels were assayed in the VSMC culture supernatants subsequent to CPP2 treatment with and without compounds[30]. However, no increase in H2O2 nor TNF-α compared to control could be detected in either assay. For the CPP-induced VSMC calcification assay (Fig. 3e) a roughly 10-fold higher concentration of (OEG2)2-IP4 was necessary to achieve similar activity as in the CaP-induced VSMC calcification assay (Fig. 3b). […] In the CaP assay, low inhibitor concentration may be sufficient to inhibit crystal nucleation, whereas for the CPP assay higher inhibitor concentrations may be needed to achieve sufficient particle stabilization by chemisorption of inhibitor onto CPPs. Similar results have been reported for hydrogen sulfide in the context of VC[62],[64]. […] An increase in the TNFα levels in the cell culture supernatants was not observed for (OEG2)2-IP4 with (Fig. 3h) and without (Supplementary Fig. 10) combined CPP2 treatment.\n(§3) Cell viability was assessed using the MTS assay (CellTiter 96® Aqueous One Solution Cell Proliferation Assay, G3580; Promega, Madison, WI, USA) according to the manufacturer’s instructions. Assays using combined treatment of CPPs or CaP and test compounds were performed in 24-well plates using 20,000 cells per well and assays using test compounds only were performed in a 96-well plate format with a seeding density of 10,000 (VSMC) or 50,000 (THP-1) cells per well, respectively. For controls, cells were treated with respective complete medium only and results were calculated as % of control."}, "primary human VSMCs [3]": {"tested_on": "primary human VSMCs", "experiment": "VSMC viability (MTS) in CPP2-supplemented medium", "assay_type": "cell-based", "protocol": "as §2, §3"}, "[4]": {"experiment": "Serum calcification propensity assay after 4.5 h incubation in enzymatically active human serum", "details": "Fig. 2e; for ΔT50 after 4.5 h vs 0 h incubation in enzymatically active human serum: compound at c350 concentration, 37 °C, individual donors"}, "primary human VSMCs [5]": {"tested_on": "primary human VSMCs", "experiment": "CPP1-induced VSMC calcium deposition", "assay_type": "cell-based", "details": "for VSMC calcium deposition (CPP2 = 100): CPP1 50 µg Ca/mL", "protocol": "as §1"}, "[6]": {"details": "1 µM with CPP2, replicates Fig. 3f"}}, "note": "“And” between values parts separate entries of the source, which are not always exact repeats. Equal entries are not always repeated. Where two headings read alike, the source gives them in different places."}
{"smiles": "COCCOCCO[C@@H]1[C@@H](OP(=O)(O)O)[C@H](OCCOCCOC)[C@@H](OP(=O)(O)O)[C@@H](OP(=O)(O)O)[C@H]1OP(=O)(O)O", "note": "[(OEG2)2-IP4, 4,6-Di-O-(methoxy-diethyleneglycol)-myo-inositol-1,2,3,5-tetrakis(phosphate)]", "values": [{"measurement": "VSMC calcium deposition, % of high-CaP control", "setting": "primary human VSMCs [1]; 0.01 µM, replicates Fig. 3b", "result": "129.5% and 91.16% and 131.6%"}, {"measurement": "reduction in calcification vs untreated high-CaP medium-exposed cells", "setting": "primary human VSMCs [1]; 0.1 µM", "result": 54, "unit": "%"}, {"measurement": "VSMC calcium deposition, % of high-CaP control", "setting": "primary human VSMCs [1]; 0.1 µM", "result": "56.69% and 37.74% and 44.37%"}, {"measurement": "VSMC calcium deposition, % of high-CaP control", "setting": "primary human VSMCs [1]; 1 µM", "result": "4.7% and 5.812% and 10.69%"}, {"measurement": "VSMC calcium deposition, % of high-CaP control", "setting": "primary human VSMCs [1]; 10 µM", "result": "4.402% and -0.7134% and 6.025%"}, {"measurement": "VSMC calcium deposition, % of high-CaP control", "setting": "primary human VSMCs [1]; 100 µM", "result": "4.139% and 1.382% and 4.723%"}, {"measurement": "calcium deposition", "setting": "primary human VSMCs [1]; above 1 µM", "result": "almost completely abrogated"}, {"measurement": "viability at 48 h, 3 µM", "setting": "[2]", "result": 102, "unit": "%"}, {"measurement": "viability at 48 h, 10 µM", "setting": "[2]", "result": 104, "unit": "%"}, {"measurement": "viability at 48 h, 30 µM", "setting": "[2]", "result": 101, "unit": "%"}, {"measurement": "viability at 48 h, 100 µM", "setting": "[2]; 100 µM with CPP2", "result": 93.7, "unit": "%"}, {"measurement": "VSMC viability in CPP2 setup", "setting": "primary human VSMCs [3]", "result": "did not reduce VSMC viability"}, {"measurement": "VSMC viability (MTS), % of medium control", "setting": "primary human VSMCs [3]; [6]", "result": "111.835% and 81.6116% and 105.448%"}, {"measurement": "VSMC viability (MTS), % of medium control", "setting": "primary human VSMCs [3]; 3 µM with CPP2", "result": "87.2434% and 103.748%"}, {"measurement": "VSMC viability (MTS), % of medium control", "setting": "primary human VSMCs [3]; 10 µM with CPP2", "result": "94.1761% and 106.452%"}, {"measurement": "VSMC viability (MTS), % of medium control", "setting": "primary human VSMCs [3]; 30 µM with CPP2", "result": "95.6307% and 101.925%"}, {"measurement": "VSMC viability (MTS), % of medium control", "setting": "primary human VSMCs [3]; 100 µM with CPP2", "result": "103.228% and 101.178%"}, {"measurement": "ΔT50 after 4.5 h vs 0 h incubation in enzymatically active human serum", "setting": "[4]", "result": "-10 min and 0 min and 51 min and 10 min"}, {"measurement": "VSMC calcium deposition (CPP2 = 100)", "setting": "primary human VSMCs [5]; 1 µM, replicates Fig. 3g", "result": "54.74% and 45.04% and 38.43%"}, {"measurement": "VSMC calcium deposition (CPP2 = 100)", "setting": "primary human VSMCs [5]; 10 µM", "result": "14.07% and 5.29% and 7.26%"}, {"measurement": "VSMC calcium deposition (CPP2 = 100)", "setting": "primary human VSMCs [5]; 30 µM", "result": "8.51% and 7.29% and 1.56%"}, {"measurement": "VSMC calcium deposition (CPP2 = 100)", "setting": "primary human VSMCs [5]; 100 µM", "result": "1.78% and 6.75% and 5.25%"}, {"measurement": "concentration from which calcium deposition was reduced to the level of control", "setting": "primary human VSMCs [5]; CPP1", "result": "≥ 10", "unit": "µM"}]}
{"smiles": "O=P(O)(O)O[C@H]1[C@H](OP(=O)(O)O)[C@@H](OP(=O)(O)O)[C@H](OP(=O)(O)O)[C@@H](OP(=O)(O)O)[C@H]1OP(=O)(O)O", "note": "[IP6, myo-Inositol hexakisphosphate]", "values": [{"measurement": "VSMC calcium deposition, % of high-CaP control", "setting": "primary human VSMCs [1]; 0.01 µM, replicates Fig. 3b", "result": "45.78% and 57.03% and 44%"}, {"measurement": "VSMC calcium deposition, % of high-CaP control", "setting": "primary human VSMCs [1]; 1 µM", "result": "43.35% and 32.19% and 33.2%"}, {"measurement": "VSMC calcium deposition, % of high-CaP control", "setting": "primary human VSMCs [1]; 10 µM", "result": "27.4% and 34.12% and 27.96%"}, {"measurement": "reduction of VSMC mineralization", "setting": "primary human VSMCs [1]; all doses studied (up to 100 µM)", "result": "50–70%"}, {"measurement": "viability at 48 h, 1 µM", "setting": "[2]; primary human VSMCs, 1 µM with CPP2, replicates Fig. 3f", "result": 100, "unit": "%"}, {"measurement": "viability at 48 h, 3 µM", "setting": "[2]; primary human VSMCs", "result": 106, "unit": "%"}, {"measurement": "viability at 48 h, 10 µM", "setting": "[2]; primary human VSMCs", "result": 109, "unit": "%"}, {"measurement": "viability at 48 h, 30 µM", "setting": "[2]; primary human VSMCs", "result": 94.2, "unit": "%"}, {"measurement": "VSMC viability (MTS), % of medium control", "setting": "primary human VSMCs [3]; [6]", "result": "94.0938% and 110.013%"}, {"measurement": "VSMC viability (MTS), % of medium control", "setting": "primary human VSMCs [3]; 3 µM with CPP2", "result": "97.0633% and 115.505%"}, {"measurement": "VSMC viability (MTS), % of medium control", "setting": "primary human VSMCs [3]; 10 µM with CPP2", "result": "97.8153% and 108.364%"}, {"measurement": "VSMC viability (MTS), % of medium control", "setting": "primary human VSMCs [3]; 30 µM with CPP2", "result": "106.197% and 112.672%"}, {"measurement": "VSMC viability (MTS), % of medium control", "setting": "primary human VSMCs [3]; 100 µM with CPP2", "result": "103.122% and 102.613% and 123.477%"}, {"measurement": "ΔT50 after 4.5 h vs 0 h incubation in enzymatically active human serum", "setting": "[4]", "result": "-69 min and -77 min and -76 min and -70 min"}, {"measurement": "decrease of T50 from baseline after 4.5-h incubation in enzymatically active serum", "setting": "[4]; mean", "result": 73, "unit": "min"}, {"measurement": "VSMC calcium deposition (CPP2 = 100)", "setting": "primary human VSMCs [5]; 3 µM", "result": "82.15% and 53.35% and 45.33%"}, {"measurement": "VSMC calcium deposition (CPP2 = 100)", "setting": "primary human VSMCs [5]; 100 µM", "result": "138.44% and 188.13% and 99%"}]}
